Patent publication US8741806B2, “Herbicides” (Syngenta Limited, priority 2009, dated 2014)

What was measured:
Type in all cases: in vivo
[1] = tested on: Echinochloa crus-galli (ECHCG); experiment: Example B pre-emergence herbicidal activity, glasshouse pot test; details: 312 h, rate 250 g/ha, evaluated after 13 days, scale 0-100, read-out: Pre-emergence activity ECHCG (100=total damage to plant; 0=no damage to plant)
Procedure: (§1) Seeds of a variety of test species were sown in standard soil in pots. After cultivation for one day (pre-emergence) or after 8 days cultivation (post-emergence) under controlled conditions in a glasshouse (at 24/16° C., day/night; 14 hours light; 65% humidity), the plants were sprayed with an aqueous spray solution derived from the formulation of the technical active ingredient of formula I in acetone/water (50:50) solution containing 0.5% Tween 20 (polyoxyethelyene sorbitan monolaurate, CAS RN 9005-64-5). The test plants were then grown in a glasshouse under controlled conditions in a glasshouse (at 24/16° C., day/night; 14 hours light; 65% humidity) and watered twice daily. After 13 days for pre and post-emergence, the test was evaluated (100=total damage to plant; 0=no damage to plant). Setaria faberi (SETFA), Lolium perenne (LOLPE), Alopecurus myosuroides (ALOMY), Echinochloa crus-galli (ECHCG), and Avena fatua (AVEFA). Pre-Emergence Activity

[2] = tested on: Avena fatua (AVEFA); experiment: as above; details: 312 h, rate 250 g/ha, evaluated after 13 days, scale 0-100, read-out: Pre-emergence activity AVEFA (100=total damage to plant; 0=no damage to plant)
Procedure: as §1

[3] = tested on: Lolium perenne (LOLPE); experiment: as above; details: 312 h, rate 250 g/ha, evaluated after 13 days, scale 0-100, read-out: Pre-emergence activity LOLPE (100=total damage to plant; 0=no damage to plant)
Procedure: as §1

[4] = tested on: Alopecurus myosuroides (ALOMY); experiment: as above; details: 312 h, rate 250 g/ha, evaluated after 13 days, scale 0-100, read-out: Pre-emergence activity ALOMY (100=total damage to plant; 0=no damage to plant)
Procedure: as §1

[5] = tested on: Echinochloa crus-galli (ECHCG); experiment: Example B post-emergence herbicidal activity, glasshouse pot test; details: 312 h, rate 250 g/ha, evaluated after 13 days, scale 0-100, read-out: Post-emergence activity ECHCG (100=total damage to plant; 0=no damage to plant)
Procedure: as §1, with “Post-Emergence” for “Pre-Emergence”

[6] = tested on: Avena fatua (AVEFA); experiment: as above; details: 312 h, rate 250 g/ha, evaluated after 13 days, scale 0-100, read-out: Post-emergence activity AVEFA (100=total damage to plant; 0=no damage to plant)
Procedure: as §1, with “Post-Emergence” for “Pre-Emergence”

[7] = tested on: Lolium perenne (LOLPE); experiment: as above; details: 312 h, rate 250 g/ha, evaluated after 13 days, scale 0-100, read-out: Post-emergence activity LOLPE (100=total damage to plant; 0=no damage to plant)
Procedure: as §1, with “Post-Emergence” for “Pre-Emergence”

[8] = tested on: Alopecurus myosuroides (ALOMY); experiment: as above; details: 312 h, rate 250 g/ha, evaluated after 13 days, scale 0-100, read-out: Post-emergence activity ALOMY (100=total damage to plant; 0=no damage to plant)
Procedure: as §1, with “Post-Emergence” for “Pre-Emergence”

SMILES | pest or weed control at 250 g/ha [1] | pest or weed control at 250 g/ha [2] | pest or weed control at 250 g/ha [3] | pest or weed control at 250 g/ha [4] | pest or weed control at 250 g/ha [5] | pest or weed control at 250 g/ha [6] | pest or weed control at 250 g/ha [7] | pest or weed control at 250 g/ha [8]
CCc1ccc(-c2ccc(Cl)c(F)c2)cc1C1=C(O)CCCC1=O [Compound T56] | 100% | 20% | 90% | 30% | 100% | 100% | 100% | 60%
CCc1ccc(-c2ccc(Cl)c(F)c2Cl)cc1C1=C(O)C(C)(C)CCC1=O [Compound T15] | 100% | 0% | 90% | 0% | 100% | 40% | 50% | 0%
CCc1ccc(-c2ccc(Cl)s2)cc1C1=C(O)CC(C)(C)CC1=O [Compound T26] | 100% | 0% | 100% | 20% | 80% | 0% | 70% | 30%
CCc1ccc(-c2ccc(Cl)c(F)c2)cc1C1=C(O)C(C)(C)CCC1=O [Compound T10] | 100% | 20% | 90% | 0% | 100% | 90% | 90% | 70%
CCc1ccc(-c2ccc(Cl)cc2Cl)cc1C1=C(O)C(C)(C)CCC1=O [Compound T18] | 90% | 20% | 80% | 30% | 90% | 40% | 80% | 30%
CCc1ccc(-c2ccc(Cl)c(C(F)(F)F)c2)cc1C1=C(O)C(C)(C)CCC1=O [Compound T8] | 100% | 20% | 90% | 0% | 100% | 30% | 80% | 40%
CCc1ccc(-c2ccc(Cl)cc2C)cc1C1=C(O)C(C)(C)CCC1=O [Compound T4, 2-(4′-chloro-4-ethyl-2′-methylbiphen-3-yl)-4,4-dimethylcyclohexane-1,3-dione] | 90% | 0% | 40% | 20% | 100% | 0% | 50% | 0%
CCc1ccc(-c2ccc(Cl)c(C(F)(F)F)c2)cc1C1=C(O)C(C)(C)CC(C)(C)C1=O [Compound T65] | 90% | 20% | 50% | 10% | 80% | 30% | 50% | 20%
CCc1ccc(-c2ccc(Cl)c(OC)c2)cc1C1=C(O)CCCC1=O [Compound T50] | 90% | 40% | 0% | 20% | 100% | 80% | 80% | 70%
CCc1ccc(-c2ccc(Cl)cc2F)cc1C1=C(O)CC(C)(C)CC1=O [Compound T32] | 80% | 30% | 80% | 0% | 100% | 70% | 100% | 40%
